Results reported in US10294202B2, “Pyrrolidinones as herbicides” (FMC Corporation, priority 2013, dated 2019).

Experiments:
[1] = system: ducksalad; experiment: Test C flooded paddy test; type: in vivo, Heteranthera limosa; conditions: Flood
Outline: (§1)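 Visual ratings from 0, no effect, to 100, complete control, were made against untreated controls after 13–15 greenhouse days. Compounds had gone straight into paddy water 3 cm above the soil, kept at that depth, on 2-leaf-stage plants.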

[2] = system: ryegrass, Italian; experiment: Test A pre-/postemergence herbicide test; type: in vivo, Lolium multiflorum; conditions: for Plant response rating, Ryegrass, Italian: 0 to 100 scale
Outline: (§2)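 Visual injury ratings, 0 = no effect, 100 = complete control, taken ~10 days after treatment against untreated greenhouse controls. Preemergence: directed soil spray onto seeded loam/sand pots. Postemergence: spray onto plants at one- to two-leaf stage, 2–10 cm tall.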

[3] = system: pigweed; experiment: Test A pre-/postemergence herbicide test; type: in vivo, Amaranthus retroflexus; conditions: for Plant response rating, Pigweed: 0 to 100 scale
Outline: as §2

[4] = system: barnyardgrass; experiment: Test C flooded paddy test; type: in vivo, Echinochloa crus-galli; conditions: Flood
Outline: as §1

[5] = system: giant foxtail; experiment: Test A pre-/postemergence herbicide test; type: in vivo, Setaria faberii; conditions: for Plant response rating, Foxtail, Giant: 0 to 100 scale
Outline: as §2

[6] = system: wheat; experiment: Test A pre-/postemergence herbicide test; type: in vivo, Triticum aestivum; conditions: Postemergence; for Plant response rating, Wheat: 125 g ai/ha, 0 to 100 scale; for Wheat plant response rating (0 to 100 scale, 0 is no effect, 100 is complete control): 500 g ai/ha
Outline: as §2

[7] = system: sedge, umbrella; experiment: Test C flooded paddy test; type: in vivo, Cyperus difformis; conditions: Flood
Outline: as §1

[8] = system: blackgrass; experiment: Test A postemergence herbicide test; type: in vivo, Alopecurus myosuroides
Outline: (§3)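 Plants at the one- to two-leaf stage, 2–10 cm tall, grown in loam/sand pots, received postemergence sprays of the test chemicals. After about 10 days in the greenhouse, injury was scored visually against untreated controls on a 0–100 scale (0 none, 100 complete control).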

[9] = system: barnyardgrass; experiment: Test A pre-/postemergence herbicide test; type: in vivo, Echinochloa crus-galli
Outline: as §2

[10] = system: corn; experiment: Test A pre-/postemergence herbicide test; type: in vivo, Zea mays; conditions: Postemergence
Outline: as §2

[11] = system: rice; experiment: Test C flooded paddy test; type: in vivo, Oryza sativa; conditions: Flood
Outline: as §1

[12] = system: ragweed; experiment: Test A pre-/postemergence herbicide test; type: in vivo, Ambrosia elatior; conditions: for Plant response rating, Ragweed: 0 to 100 scale
Outline: as §2

[13] = system: kochia; experiment: Test A pre-/postemergence herbicide test; type: in vivo, Kochia scoparia; conditions: for Plant response rating, Kochia: 0 to 100 scale
Outline: as §2

[14] = system: galium; experiment: Test A postemergence herbicide test; type: in vivo, Galium aparine; conditions: for Plant response rating, Galium: 125 g ai/ha, 0 to 100 scale; for Galium plant response rating (0 to 100 scale, 0 is no effect, 100 is complete control): 500 g ai/ha
Outline: as §3

[15] = 125 g ai/ha, scale of 0 to 100 where 0 is no effect and 100 is complete control, 13 to 15 days
[16] = 125 g ai/ha, visual rating, 0 no effect, 100 complete control, approximately 10 days, preemergence
[17] = Postemergence, 125 g ai/ha, 0 no effect, 100 complete control
[18] = 0 no effect, 100 complete control
[19] = 125 g ai/ha, 0 to 100 scale, 0 no effect, 100 complete control
[20] = 500 g ai/ha, 0 to 100 scale (0 no effect, 100 complete control)
[21] = 125 g ai/ha, visual rating, 0 to 100 scale, 0 no effect, 100 complete control, approximately 10 days, preemergence
[22] = 250 g ai/ha, scale of 0 to 100 where 0 is no effect and 100 is complete control, 13 to 15 days
[23] = Postemergence, 125 g ai/ha, 0 is no effect, 100 is complete control
[24] = preemergence, 500 g ai/ha, 0 is no effect and 100 is complete control
[25] = 0 is no effect, 100 is complete control
[26] = 125 g ai/ha, 0 to 100 scale, 0 is no effect, 100 is complete control

O=C1NCC(c2cccc(C(F)(F)F)c2)C1C(=O)Nc1nc(C(F)(F)F)co1 (racemic) [Compound 114]
80: Plant response rating, Ducksalad ([1]; 1000 g ai/ha, scale 0 to 100)
0: Plant response rating, Ryegrass, Italian [2, 16] | Plant response rating, Ryegrass, Italian [2, 17] | Plant response rating, Pigweed [3, 16] | Plant response rating, Pigweed [3, 17] | Pigweed plant response rating (0 to 100 scale, 0 is no effect, 100 is complete control) ([3]; Postemergence, 500 g ai/ha) | Plant response rating, Pigweed ([3]; preemergence, 500 g ai/ha) | Plant response rating, Barnyardgrass [4, 15] | Plant response rating, Barnyardgrass ([4]; 250 g ai/ha, scale 0 to 100) | Plant response rating, Barnyardgrass ([4]; 500 g ai/ha, scale 0 to 100) | Plant response rating, Barnyardgrass ([4]; 1000 g ai/ha, scale 0 to 100) | Plant response rating, Wheat [6, 18] | Plant response rating, Sedge, Umbrella [7, 15] | Plant response rating, Sedge, Umbrella ([7]; 250 g ai/ha, scale 0 to 100) | Plant response rating, Sedge, Umbrella ([7]; 500 g ai/ha, scale 0 to 100) | Plant response rating, Sedge, Umbrella ([7]; 1000 g ai/ha, scale 0 to 100) | Plant response rating, Corn [10, 19] | Plant response rating, Rice [11, 15] | Plant response rating, Rice ([11]; 250 g ai/ha, scale 0 to 100) | Plant response rating, Rice ([11]; 500 g ai/ha, scale 0 to 100) | Plant response rating, Rice ([11]; 1000 g ai/ha, scale 0 to 100) | Plant response rating, Ragweed [12, 16] | Plant response rating, Ragweed [12, 17] | Ragweed plant response rating (0 to 100 scale, 0 is no effect, 100 is complete control) ([12]; Postemergence, 500 g ai/ha) | Plant response rating, Ragweed ([12]; preemergence, 500 g ai/ha) | Plant response rating, Kochia [13, 16] | Plant response rating, Kochia [13, 17] | Plant response rating, Kochia ([13]; preemergence, 500 g ai/ha) | Plant response rating, Galium [14, 18]
30: Plant response rating, Ducksalad ([1]; 250 g ai/ha, scale 0 to 100) | Plant response rating, Ryegrass, Italian ([2]; preemergence, 500 g ai/ha) | Plant response rating, Blackgrass [8, 20]
40: Plant response rating, Foxtail, Giant [5, 17]
70: Plant response rating, Ducksalad ([1]; 500 g ai/ha, scale 0 to 100) | Foxtail, Giant plant response rating (0 to 100 scale, 0 is no effect, 100 is complete control) ([5]; Postemergence, 500 g ai/ha) | Plant response rating, Foxtail, Giant ([5]; preemergence, 500 g ai/ha)
20: Plant response rating, Ducksalad [1, 15] | Plant response rating, Foxtail, Giant [5, 16] | Wheat plant response rating (0 to 100 scale, 0 is no effect, 100 is complete control) [6] | Plant response rating, Blackgrass [8, 19] | Plant response rating, Barnyardgrass [9, 21] | Plant response rating, Barnyardgrass ([9]; Postemergence, 125 g ai/ha, 0 to 100 scale, 0 no effect, 100 complete control) | Plant response rating, Corn [10, 20] | Kochia plant response rating (0 to 100 scale, 0 is no effect, 100 is complete control) ([13]; Postemergence, 500 g ai/ha) | Galium plant response rating (0 to 100 scale, 0 is no effect, 100 is complete control) [14]
50: Plant response rating, Barnyardgrass ([9]; preemergence, 500 g ai/ha, 0 to 100 scale (0 no effect, 100 complete control))
60: Ryegrass, Italian plant response rating (0 to 100 scale, 0 is no effect, 100 is complete control) ([2]; Postemergence, 500 g ai/ha) | Plant response rating, Barnyardgrass ([9]; Postemergence, 500 g ai/ha, 0 to 100 scale (0 no effect, 100 complete control))

O=C1NCC(c2cccc(C(F)(F)F)c2)C1C(=O)Nc1cccc(F)c1 (racemic) [Compound 208]
90: Plant response rating, Foxtail, Giant [5, 23] | Foxtail, Giant plant response rating (0 to 100 scale, 0 is no effect, 100 is complete control) ([5]; Postemergence, 500 g ai/ha) | Plant response rating, Foxtail, Giant [5, 24] | Plant response rating, Barnyardgrass ([9]; preemergence, 500 g ai/ha, 0 to 100 scale, 0 is no effect and 100 is complete control)
100: Plant response rating, Ducksalad ([1]; 1000 g ai/ha, scale 0 to 100)
40: Ryegrass, Italian plant response rating (0 to 100 scale, 0 is no effect, 100 is complete control) ([2]; Postemergence, 500 g ai/ha) | Wheat plant response rating (0 to 100 scale, 0 is no effect, 100 is complete control) [6] | Plant response rating, Barnyardgrass [9, 21]
50: Plant response rating, Barnyardgrass ([9]; Postemergence, 125 g ai/ha, 0 to 100 scale, 0 is no effect, 100 is complete control) | Corn plant response rating (0 to 100 scale, 0 is no effect, 100 is complete control) ([10]; 500 g ai/ha) | Galium plant response rating (0 to 100 scale, 0 is no effect, 100 is complete control) [14]
15: Plant response rating, Rice ([11]; 1000 g ai/ha, scale 0 to 100)
45: Plant response rating, Ducksalad [1, 22] | Plant response rating, Ducksalad ([1]; 500 g ai/ha, scale 0 to 100) | Plant response rating, Barnyardgrass ([4]; 500 g ai/ha, scale 0 to 100)
65: Plant response rating, Barnyardgrass ([4]; 1000 g ai/ha, scale 0 to 100)
80: Plant response rating, Foxtail, Giant [5, 16] | Barnyardgrass plant response rating (0 to 100 scale, 0 is no effect, 100 is complete control) ([9]; Postemergence, 500 g ai/ha)
60: Blackgrass plant response rating (0 to 100 scale, 0 is no effect, 100 is complete control) ([8]; 500 g ai/ha) | Kochia plant response rating (0 to 100 scale, 0 is no effect, 100 is complete control) ([13]; Postemergence, 500 g ai/ha)
20: Plant response rating, Ryegrass, Italian [2, 24] | Plant response rating, Barnyardgrass [4, 22] | Plant response rating, Blackgrass [8, 26] | Ragweed plant response rating (0 to 100 scale, 0 is no effect, 100 is complete control) ([12]; Postemergence, 500 g ai/ha) | Plant response rating, Kochia [13, 24]
0: Plant response rating, Ducksalad [1, 15] | Plant response rating, Ryegrass, Italian [2, 16] | Plant response rating, Ryegrass, Italian [2, 23] | Plant response rating, Pigweed [3, 16] | Plant response rating, Pigweed [3, 23] | Pigweed plant response rating (0 to 100 scale, 0 is no effect, 100 is complete control) ([3]; Postemergence, 500 g ai/ha) | Plant response rating, Pigweed [3, 24] | Plant response rating, Barnyardgrass [4, 15] | Plant response rating, Wheat [6, 25] | Plant response rating, Sedge, Umbrella [7, 15] | Plant response rating, Sedge, Umbrella [7, 22] | Plant response rating, Sedge, Umbrella ([7]; 500 g ai/ha, scale 0 to 100) | Plant response rating, Sedge, Umbrella ([7]; 1000 g ai/ha, scale 0 to 100) | Plant response rating, Corn [10, 26] | Plant response rating, Rice [11, 15] | Plant response rating, Rice [11, 22] | Plant response rating, Rice ([11]; 500 g ai/ha, scale 0 to 100) | Plant response rating, Ragweed [12, 16] | Plant response rating, Ragweed [12, 23] | Plant response rating, Ragweed [12, 24] | Plant response rating, Kochia [13, 16] | Plant response rating, Kochia [13, 23] | Plant response rating, Galium [14, 25]
